These results are taken from patent US12090143B1, “4-chloro-N′-(2-(5-phenyl-1,3,4-oxadiazol-2-ylthio)acetoxy)benzimidamide as an antimicrobial compound” (KING FAISAL UNIVERSITY, priority 2023, dated 2024).

SMILES strings stand for the structures.

Common to all, as to assay type: cell-based
Assay [1] deals with Chrysosporium keratinophilum. Description: Agar plate disc-diffusion, antifungal, Chrysosporium keratinophilum. Particulars: Sabouraud's dextrose agar, 37° C., 72 hours, DMSO zone subtracted. The procedure: (§1) The agar plate disc-diffusion method was applied. […] The discs were then placed onto the surface of agar plates (nutrient agar for bacteria and Sabouraud's dextrose agar for fungi) seeded with the test organism. Each plate contained 15 mL of the agar medium, previously seeded with 0.2 mL of the broth culture of each organism pregrown for 18 hours. The plates were incubated at 37° C. for 48 hours, and 72 hours for fungi. The inhibition zones was measured in mm. Discs impregnated with DMSO were used as a control, and its inhibition zone was subtracted from the tested compound actual inhibition zone.
Background: In agar diffusion tests the substance spreads into inoculated agar from a disc or well.

In assay [2] the test system is Escherichia coli. Description: Agar plate disc-diffusion, antibacterial, Escherichia coli. Particulars: nutrient agar, 37° C., 48 hours, DMSO zone subtracted. Here is the method: as §1
Assay [3] has as its system Pseudomonas aeruginosa. The experiment in a line: Agar plate disc-diffusion, antibacterial, Pseudomonas aeruginosa. As to conditions: nutrient agar, 37° C., 48 hours, DMSO zone subtracted. Here is the method:
as §1

Assay [4] concerns Staphylococcus aureus. Description: Agar plate disc-diffusion, antibacterial, Staphylococcus aureus. Particulars: nutrient agar, 37° C., 48 hours, DMSO zone subtracted. Here is the method:
as §1

For assay [5], the system named is Aspergillus flavus. Description: Agar plate disc-diffusion, antifungal, Aspergillus flavus. Particulars: Sabouraud's dextrose agar, 37° C., 72 hours, DMSO zone subtracted. Here is the method: as §1
In assay [6] the test system is Bacillus cereus. The experiment in a line: Agar plate disc-diffusion, antibacterial, Bacillus cereus. As to conditions: nutrient agar, 37° C., 48 hours, DMSO zone subtracted. The procedure: as §1
[7] abbreviates: A = concentration of comp. = 10,000 μL.
Setting [8] is: B = concentration of comp. = 30,000 μL.
The mark [9] stands for this setting: C = concentration of comp. = 50,000 μL.

`N/C(=N\OC(=O)CSc1nnc(-c2ccccc2)o1)c1ccc(Cl)cc1` [Compound 3, 4-chloro-N′-(2-(5-phenyl-1,3,4-oxadiazol-2-ylthio)acetoxy)benzimidamide]: the “inhibition zone, Chrysosporium keratinophilum, A” value in assay [1] (setting [7]) was 35 mm. The “inhibition zone, Chrysosporium keratinophilum, B” value in assay [1] (setting [8]) is given as 26 mm. In addition, the “inhibition zone, Chrysosporium keratinophilum, C” value in assay [1] (setting [9]) was 42 mm. For the same compound, the “inhibition zone, Escherichia coli, A” value in assay [2] (A =) is 28 mm. Besides, in assay [2] (setting [8]), the “inhibition zone, Escherichia coli, B” value stood at 36 mm. Besides, the “inhibition zone, Escherichia coli, C” value in assay [2] (setting [9]) stood at 53 mm. Also, in assay [3] (A =), the “inhibition zone, Pseudomonas aeruginosa, A” value turned out to be 20 mm. In addition, in assay [3] (setting [8]), the “inhibition zone, Pseudomonas aeruginosa, B” value is recorded as 26 mm. For the same compound, in assay [3] (setting [9]), the “inhibition zone, Pseudomonas aeruginosa, C” value was 40 mm. In addition, in assay [4] (setting [7]), the “inhibition zone, Staphylococcus aureus, A” value is reported as 25 mm. Besides, the “inhibition zone, Staphylococcus aureus, B” value in assay [4] (setting [8]) was determined as 27 mm. The “inhibition zone, Staphylococcus aureus, C” value in assay [4] (setting [9]) worked out at 39 mm. Moreover, the “inhibition zone, Aspergillus flavus, A” value in assay [5] (setting [7]) is recorded as 23 mm. Also, in assay [5] (setting [8]), the “inhibition zone, Aspergillus flavus, B” value stood at 27 mm. Besides, in assay [5] (setting [9]), the “inhibition zone, Aspergillus flavus, C” value turned out to be 39 mm. In assay [6] (setting [7]), the “inhibition zone, Bacillus Cereus, A” value is reported as 26 mm. Moreover, the “inhibition zone, Bacillus Cereus, B” value in assay [6] (setting [8]) is recorded as 29 mm. Moreover, the “inhibition zone, Bacillus Cereus, C” value in assay [6] (setting [9]) worked out at 39 mm.
